pIC50: −log10 of the molar value.
Key:
[1] = target: human TLR8 (Homo sapiens (Human), UniProt Q9NR97); assay: TLR8 inhibition reporter assay (HEK-Blue SEAP); conditions: read-out: TLR8 IC50; HEK-Blue cells overexpressing human TLR8, SEAP reporter, R848 15.9 μM;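 further: SEAP driven by IFN-β minimal promoter carrying NF-κB and AP-1 sites, compounds dosed 0.05 nM to 50 µM for 22 h, inhibition scaled between agonist-plus-DMSO and reference-inhibitor wells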
[2] = target: human TLR7 (Homo sapiens (Human), UniProt Q9NYK1); assay: TLR7 inhibition reporter assay (HEK-Blue SEAP); assay type: cell-based; conditions: HEK-Blue cells overexpressing human TLR7, SEAP reporter, gardiquimod 7.5 μM
[3] = target: human TLR9 (Homo sapiens (Human), UniProt Q9NR96); assay: TLR9 inhibition reporter assay (HEK-Blue SEAP); conditions: read-out: TLR9 IC50; HEK-Blue cells overexpressing human TLR9, SEAP reporter, ODN2006 5 nM;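 further: SEAP driven by an IFN-β minimal promoter with NF-κB and AP-1 sites, read after 22 h, compounds dosed 0.05 nM–50 µM, inhibition scaled between agonist plus DMSO and reference-inhibitor wells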
Chain of human TLR9 (Q9NR96 26-1032): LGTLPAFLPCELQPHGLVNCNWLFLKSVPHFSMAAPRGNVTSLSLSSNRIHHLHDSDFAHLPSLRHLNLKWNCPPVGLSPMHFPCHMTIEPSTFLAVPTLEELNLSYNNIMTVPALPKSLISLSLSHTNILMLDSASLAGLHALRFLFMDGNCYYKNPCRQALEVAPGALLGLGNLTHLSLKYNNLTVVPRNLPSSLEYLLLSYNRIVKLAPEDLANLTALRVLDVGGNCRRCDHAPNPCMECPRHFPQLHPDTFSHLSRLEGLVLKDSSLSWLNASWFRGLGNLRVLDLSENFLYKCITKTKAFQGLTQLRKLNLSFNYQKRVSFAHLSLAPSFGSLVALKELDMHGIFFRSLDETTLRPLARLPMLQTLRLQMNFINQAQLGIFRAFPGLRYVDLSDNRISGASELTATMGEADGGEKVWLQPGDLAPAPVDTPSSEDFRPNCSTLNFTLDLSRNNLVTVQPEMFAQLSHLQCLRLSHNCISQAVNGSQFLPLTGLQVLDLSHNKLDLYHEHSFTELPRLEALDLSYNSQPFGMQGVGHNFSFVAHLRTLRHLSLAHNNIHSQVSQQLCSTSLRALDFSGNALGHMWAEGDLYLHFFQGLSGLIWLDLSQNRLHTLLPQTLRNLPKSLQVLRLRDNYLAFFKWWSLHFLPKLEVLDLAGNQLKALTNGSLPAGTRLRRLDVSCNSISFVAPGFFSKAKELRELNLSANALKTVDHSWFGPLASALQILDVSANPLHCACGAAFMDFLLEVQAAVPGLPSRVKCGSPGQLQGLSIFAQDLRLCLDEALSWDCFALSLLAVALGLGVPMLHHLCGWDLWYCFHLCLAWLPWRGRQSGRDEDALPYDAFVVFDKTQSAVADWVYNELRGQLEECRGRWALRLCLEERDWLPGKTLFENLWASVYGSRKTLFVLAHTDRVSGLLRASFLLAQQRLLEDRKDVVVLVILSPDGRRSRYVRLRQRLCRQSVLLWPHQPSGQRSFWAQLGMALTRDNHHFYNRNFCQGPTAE

Chain of human TLR7 (Q9NYK1 27-1049): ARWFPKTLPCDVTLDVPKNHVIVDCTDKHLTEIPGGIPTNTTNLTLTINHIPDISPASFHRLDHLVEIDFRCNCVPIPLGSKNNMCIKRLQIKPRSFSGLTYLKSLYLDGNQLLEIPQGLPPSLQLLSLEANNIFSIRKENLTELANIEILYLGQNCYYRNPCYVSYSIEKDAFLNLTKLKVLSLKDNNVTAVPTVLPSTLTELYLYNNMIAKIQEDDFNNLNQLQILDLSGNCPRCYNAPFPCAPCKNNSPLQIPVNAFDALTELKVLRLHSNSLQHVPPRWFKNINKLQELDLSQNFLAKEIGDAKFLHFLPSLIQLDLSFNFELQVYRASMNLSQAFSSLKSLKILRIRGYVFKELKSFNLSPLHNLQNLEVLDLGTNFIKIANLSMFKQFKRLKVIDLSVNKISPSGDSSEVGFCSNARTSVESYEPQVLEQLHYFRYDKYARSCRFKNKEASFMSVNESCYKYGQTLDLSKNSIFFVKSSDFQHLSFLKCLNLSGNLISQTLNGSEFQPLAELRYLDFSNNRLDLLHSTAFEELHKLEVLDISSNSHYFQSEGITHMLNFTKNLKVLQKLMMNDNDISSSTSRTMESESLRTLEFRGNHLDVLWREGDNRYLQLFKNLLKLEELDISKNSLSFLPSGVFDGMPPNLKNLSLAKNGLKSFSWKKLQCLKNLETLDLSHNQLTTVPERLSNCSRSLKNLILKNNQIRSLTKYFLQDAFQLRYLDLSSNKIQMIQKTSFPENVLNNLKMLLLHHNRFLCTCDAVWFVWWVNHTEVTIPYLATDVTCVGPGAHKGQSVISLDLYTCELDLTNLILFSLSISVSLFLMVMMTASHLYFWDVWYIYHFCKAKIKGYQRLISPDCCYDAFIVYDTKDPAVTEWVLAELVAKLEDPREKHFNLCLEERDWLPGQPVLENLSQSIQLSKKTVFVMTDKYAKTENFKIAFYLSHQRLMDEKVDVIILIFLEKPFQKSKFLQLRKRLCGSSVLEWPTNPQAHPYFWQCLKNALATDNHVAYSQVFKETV
Chain of human TLR8 (Q9NR97 27-1041): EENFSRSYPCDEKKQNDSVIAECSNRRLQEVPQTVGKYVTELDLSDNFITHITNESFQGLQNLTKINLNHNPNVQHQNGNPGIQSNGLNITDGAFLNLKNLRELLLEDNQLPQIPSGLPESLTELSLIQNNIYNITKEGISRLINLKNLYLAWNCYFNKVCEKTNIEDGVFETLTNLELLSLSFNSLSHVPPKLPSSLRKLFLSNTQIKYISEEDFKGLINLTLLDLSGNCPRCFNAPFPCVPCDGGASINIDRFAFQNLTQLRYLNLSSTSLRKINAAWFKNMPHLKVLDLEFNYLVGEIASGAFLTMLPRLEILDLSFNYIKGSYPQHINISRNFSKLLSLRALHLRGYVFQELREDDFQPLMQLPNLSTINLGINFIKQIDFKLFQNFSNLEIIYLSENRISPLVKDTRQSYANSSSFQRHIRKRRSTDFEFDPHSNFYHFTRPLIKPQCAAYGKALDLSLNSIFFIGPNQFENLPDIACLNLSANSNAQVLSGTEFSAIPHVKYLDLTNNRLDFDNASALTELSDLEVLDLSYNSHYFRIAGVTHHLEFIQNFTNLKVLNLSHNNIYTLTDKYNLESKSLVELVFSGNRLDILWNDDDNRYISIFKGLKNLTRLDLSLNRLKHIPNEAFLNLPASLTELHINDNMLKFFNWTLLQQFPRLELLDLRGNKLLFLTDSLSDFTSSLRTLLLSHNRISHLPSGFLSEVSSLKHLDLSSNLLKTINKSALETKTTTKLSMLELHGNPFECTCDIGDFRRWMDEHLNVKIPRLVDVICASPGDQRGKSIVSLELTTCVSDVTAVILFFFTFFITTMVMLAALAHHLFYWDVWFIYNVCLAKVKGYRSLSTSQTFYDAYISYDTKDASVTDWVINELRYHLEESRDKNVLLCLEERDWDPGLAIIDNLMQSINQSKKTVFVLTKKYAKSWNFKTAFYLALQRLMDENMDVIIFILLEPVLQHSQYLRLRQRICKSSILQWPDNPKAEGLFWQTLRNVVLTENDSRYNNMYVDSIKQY

pIC50 [1] | pIC50 [2] | pIC50 [3] | SMILES
8.49 | 8.70 | 5.91 | COc1cc(-c2[nH]c3ccc(OC4CCN(CC(C)(C)O)CC4)nc3c2C(C)C)cn2ncnc12 [Example 613, 1-(4-((3-isopropyl-2-(8-methoxy-[1,2,4]triazolo[1,5-a]pyridin-6-yl)-1H-pyrrolo[3,2-b]pyridin-5-yl)oxy)piperidin-1-yl)-2-methylpropan-2-ol]
8.10 | 8.62 | 5.71 | Cc1c(-c2[nH]c3ccc(C4CC(N(C)C(=O)CN(C)C)C4)nc3c2C(C)C)cn2ncnc2c1C (stereo not drawn) [Example 615]
8.34 | 8.32 | 5.43 | Cc1c(-c2[nH]c3ccc(C4CC(N(C)C)C4)nc3c2C(C)C)cn2ncnc2c1C (stereo not drawn) [Example 618]
8.52 | 9.37 | 6.06 | COc1cc(-c2[nH]c3ccc(C4CC(NC(=O)CN(C)C)C4)nc3c2C(C)C)cn2ncnc12 (stereo not drawn) [Example 619]
8.62 | 9.14 | 6.65 | COc1cc(-c2[nH]c3ccc(C4CC(N)C4)nc3c2C(C)C)cn2ncnc12 (stereo not drawn) [Example 620]
8.12 | 8.15 | 4.83 | Cc1c(-c2[nH]c3ccc(C4CC(N(C)CCS(C)(=O)=O)C4)nc3c2C(C)C)cn2ncnc2c1C (stereo not drawn) [Example 621]
7.85 | 7.52 | 5.29 | Cc1c(-c2[nH]c3ccc(C4CC(N(C)CC(=O)N(C)C)C4)nc3c2C(C)C)cn2ncnc2c1C (stereo not drawn) [Example 622]
8.70 | 8.80 | 5.50 | Cc1c(-c2[nH]c3ccc(C4CC(N(C)C)C4)nc3c2C(C)C)cn2ncnc2c1C (stereo not drawn) [Example 623]
8.70 | 8.52 | 5.59 | Cc1c(-c2[nH]c3ccc(C4CC(NCCS(C)(=O)=O)C4)nc3c2C(C)C)cn2ncnc2c1C (stereo not drawn) [Example 624]
8.00 | 9.14 | 6.01 | COc1cc(-c2[nH]c3ccc(C4CC(N(C)C(=O)CN(C)C)C4)nc3c2C(C)C)cn2ncnc12 (stereo not drawn) [Example 625]
8.10 | 7.54 | 4.87 | Cc1c(-c2[nH]c3ccc(C4CC(N(C)CC5(C)COC5)C4)nc3c2C(C)C)cn2ncnc2c1C (stereo not drawn) [Example 626]
7.74 | 8.10 | 5.35 | COc1cc(-c2[nH]c3ccc(C4CC(N(C)CC(=O)N(C)C)C4)nc3c2C(C)C)cn2ncnc12 (stereo not drawn) [Example 627]
8.48 | 8.68 | 6.46 | CNC(=O)CNC1CC(c2ccc3[nH]c(-c4cc(OC)c5ncnn5c4)c(C(C)C)c3n2)C1 (stereo not drawn) [Example 628]
8.19 | 8.59 | 5.72 | COc1cc(-c2[nH]c3ccc(C4CC(N(C)C)C4)nc3c2C(C)C)cn2ncnc12 (stereo not drawn) [Example 629]
7.85 | 8.72 | 5.89 | COc1cc(-c2[nH]c3ccc(C4CC(N(C)C(=O)CN(C)C)C4)nc3c2C(C)C)cn2ncnc12 (stereo not drawn) [Example 630]
8.72 | 8.40 | 5.51 | CNC(=O)CNC1CC(c2ccc3[nH]c(-c4cn5ncnc5c(C)c4C)c(C(C)C)c3n2)C1 (stereo not drawn) [Example 631]
7.48 | 7.40 | 4.59 | Cc1c(-c2[nH]c3ccc(C4CC(N(CC5(C)COC5)CC5(C)COC5)C4)nc3c2C(C)C)cn2ncnc2c1C (stereo not drawn) [Example 633]
8.52 | 8.70 | 5.62 | COc1cc(-c2[nH]c3ccc(C4CC(NCCS(C)(=O)=O)C4)nc3c2C(C)C)cn2ncnc12 (stereo not drawn) [Example 634]
8.96 | 8.24 | 5.75 | Cc1c(-c2[nH]c3ccc(C4CC(NC5CCOCC5)C4)nc3c2C(C)C)cn2ncnc2c1C (stereo not drawn) [Example 635]
7.55 | 7.34 | 4.67 | Cc1c(-c2[nH]c3ccc(C4CC(N(C)CCS(C)(=O)=O)C4)nc3c2C(C)C)cn2ncnc2c1C (stereo not drawn) [Example 636]
9.28 | 8.42 | 5.87 | Cc1c(-c2[nH]c3ccc(C4CC(NCC5(C)COC5)C4)nc3c2C(C)C)cn2ncnc2c1C (stereo not drawn) [Example 637]
8.14 | 8.54 | 5.90 | COc1cc(-c2[nH]c3ccc(C4CC(NC(=O)CN(C)C)C4)nc3c2C(C)C)cn2ncnc12 (stereo not drawn) [Example 638]

pIC50 [1] | pIC50 [2] | pIC50 [3] | SMILES
8.72 | 9.01 | 5.83 | COc1cc(-c2[nH]c3ccc(C4CC(N(C)C)C4)nc3c2C(C)C)cn2ncnc12 (stereo not drawn) [Example 639]
8.31 | 8.31 | 4.87 | COc1cc(-c2[nH]c3ccc(C4CC(N(C)CCS(C)(=O)=O)C4)nc3c2C(C)C)cn2ncnc12 (stereo not drawn) [Example 640]
8.46 | 8.04 | 5.48 | Cc1c(-c2[nH]c3ccc(C4CC(N(C)CC(C)(C)O)C4)nc3c2C(C)C)cn2ncnc2c1C (stereo not drawn) [Example 641]
7.59 | 7.85 | 4.74 | COc1cc(-c2[nH]c3ccc(C4CC(N(C)CCS(C)(=O)=O)C4)nc3c2C(C)C)cn2ncnc12 (stereo not drawn) [Example 642]
8.28 | 8.27 | 5.50 | COc1cc(-c2[nH]c3ccc(C4CC(N(C)CC5(C)COC5)C4)nc3c2C(C)C)cn2ncnc12 (stereo not drawn) [Example 643]
8.35 | 8.57 | 5.57 | Cc1c(-c2[nH]c3ccc(C4CC(NC(=O)CN(C)C)C4)nc3c2C(C)C)cn2ncnc2c1C (stereo not drawn) [Example 644]
6.52 | 7.68 | 5.39 | COc1cc(-c2[nH]c3ccc(C4CN(CC(N)=O)C4)nc3c2C(C)C)cn2ncnc12 [Example 645]
7.96 | 8.68 | 5.38 | Cc1c(-c2[nH]c3ccc(C4CN(CC(N)=O)C4)nc3c2C(C)C)cn2ncnc2c1C [Example 646]
7.59 | 8.64 | 5.23 | COc1cc(-c2[nH]c3ccc(C4CN(CCS(C)(=O)=O)C4)nc3c2C(C)C)cn2ncnc12 [Example 647]
7.40 | 8.68 | 5.68 | COc1cc(-c2[nH]c3ccc(C4CNC4)nc3c2C(C)C)cn2ncnc12 [Example 648]
8.00 | 8.21 | 5.48 | Cc1c(-c2[nH]c3ccc(C4CNC4)nc3c2C(C)C)cn2ncnc2c1C [Example 649, 6-(5-(azetidin-3-yl)-3-isopropyl-1H-pyrrolo[3,2-b]pyridin-2-yl)-7,8-dimethyl-[1,2,4]triazolo[1,5-a]pyridine]
7.74 | 8.17 | 5.51 | Cc1c(-c2[nH]c3ccc(C4CN(C(=O)CN(C)C)C4)nc3c2C(C)C)cn2ncnc2c1C [Example 650]
7.62 | 8.77 | 6.16 | COc1cc(-c2[nH]c3ccc(C4CN(Cc5c[nH]nn5)C4)nc3c2C(C)C)cn2ncnc12 [Example 651]
7.66 | 8.52 | 5.80 | COc1cc(-c2[nH]c3ccc(C4CN(C(=O)CN(C)C)C4)nc3c2C(C)C)cn2ncnc12 [Example 652]
7.89 | 8.26 | 4.88 | Cc1c(-c2[nH]c3ccc(C4CN(CCS(C)(=O)=O)C4)nc3c2C(C)C)cn2ncnc2c1C [Example 653, 6-(3-isopropyl-5-(1-(2-(methylsulfonyl)ethyl)azetidin-3-yl)-1H-pyrrolo[3,2-b]pyridin-2-yl)-7,8-dimethyl-[1,2,4]triazolo[1,5-a]pyridine]
8.02 | 8.19 | 5.31 | Cc1c(-c2[nH]c3ccc(C4CN(CC(C)(C)O)C4)nc3c2C(C)C)cn2ncnc2c1C [Example 654]
7.96 | 8.85 | 5.68 | COc1cc(-c2[nH]c3ccc(C4CN(C(C)C)C4)nc3c2C(C)C)cn2ncnc12 [Example 655]
8.33 | 8.85 | 5.73 | Cc1c(-c2[nH]c3ccc(C4CN(C(C)C)C4)nc3c2C(C)C)cn2ncnc2c1C [Example 656]
8.00 | 8.68 | 6.07 | COc1cc(-c2[nH]c3ccc(C4CN(CC(C)(C)O)C4)nc3c2C(C)C)cn2ncnc12 [Example 657]
8.09 | 8.42 | 4.87 | Cc1c(-c2[nH]c3ccc(C4CN(C(C)C)CCO4)nc3c2C(C)C)cn2ncnc2c1C (stereo not drawn) [Example 658]
7.62 | 7.92 | 5.07 | COc1cc(-c2[nH]c3ccc(C4CN(C5CCOCC5)CCO4)nc3c2C(C)C)cn2ncnc12 (stereo not drawn) [Example 659]
7.82 | 8.48 | 4.84 | COc1cc(-c2[nH]c3ccc(C4CN(C(C)C)CCO4)nc3c2C(C)C)cn2ncnc12 (stereo not drawn) [Example 660, 4-isopropyl-2-(3-isopropyl-2-(8-methoxy-[1,2,4]triazolo[1,5-a]pyridin-6-yl)-1H-pyrrolo[3,2-b]pyridin-5-yl)morpholine]

SMILES | pIC50 [1] | pIC50 [2] | pIC50 [3]
COc1cc(-c2[nH]c3ccc(OC4CCC(N(C)C)CC4)nc3c2C(C)C)cn2ncnc12 (stereo not drawn) [Example 614, 4-((3-isopropyl-2-(8-methoxy-[1,2,4]triazolo[1,5-a]pyridin-6-yl)-1H-pyrrolo[3,2-b]pyridin-5-yl)oxy)-N,N-dimethylcyclohexan-1-amine] | 7.89 | 8.72 | 5.99
COc1cc(-c2[nH]c3ccc(C4CC(NCC5(C)COC5)C4)nc3c2C(C)C)cn2ncnc12 (stereo not drawn) [Example 616] | 8.82 | 8.44 | 5.89
Cc1c(-c2[nH]c3ccc(C4CC(N)C4)nc3c2C(C)C)cn2ncnc2c1C (stereo not drawn) [Example 617] | 5.88 | 5.65 | 4.69
COc1cc(-c2[nH]c3ccc(C4CC(NC5CCOCC5)C4)nc3c2C(C)C)cn2ncnc12 (stereo not drawn) [Example 632] | 8.66 | 8.51 | 6.36

— patent US10544143B2, “4-azaindole compounds” (BRISTOL-MYERS SQUIBB COMPANY, priority 2017, dated 2020)
